# Experimental data from patent US20240366589A1, “NHE3-BINDING COMPOUNDS AND METHODS FOR INHIBITING PHOSPHATE TRANSPORT” (Ardelyx, Inc., priority 2013, published 2024).
# What was measured:
# [1] = test system: phosphorus and calcium levels in the urine of rats; assay: Urinary excretion of phosphate and calcium in rats (16 h overnight urine); assay type: in vivo, rat; conditions: rats, oral gavage, 16 h post-dose
# Rat NHE3 = molecular target: T1, Rat NHE3 (Rattus norvegicus, UniProt P26433); assay: Cell-based NHE3 activity under prompt conditions (OK cells, BCECF pH recovery), rat NHE3; conditions: prompt conditions
# T1 construct: expressed in transfected cells; host or cells: Opossum kidney (OK) cells (ATCC), electroporation
# Description: (§1) Cell-based activity under Prompt Conditions. Rat or human NHE3-mediated Na^+-dependent H antiport was measured using a modification of the pH sensitive dye method originally reported by Paradiso (PNAS USA. 81:7436-7440, 1984). Opossum kidney (OK) cells were obtained from the ATCC and propagated per their instructions. The rat NHE3 gene (GenBank M85300) or the human NHE3 gene (GenBank NM_004174.1) was introduced into OK cells via electroporation, and cells were seeded into 96 well plates and grown overnight. Medium was aspirated from the wells, cells were washed twice with NaCl-HEPES buffer (100 mM NaCl, 50 mM HEPES, 10 mM glucose, 5 mM KCl, 2 mM CaCl2, 1 mM MgCl2, pH 7.4), then incubated for 30 min at room temperature with NH4Cl-HEPES buffer (20 mM NH4Cl, 80 mM NaCl, 50 mM HEPES, 5 mM KCl, 2 mM CaCl2, 1 mM MgCl2, pH 7.4) containing 5 μM bis(acetoxymethyl) 3,3′-(3′,6′-bis(acetoxymethoxy)-5-((acetoxymethoxy)carbonyl)-3-oxo-3H-spiro[isobenzofuran-1,9′-xanthene]-2′,7′-diyl)dipropanoate (BCECF-AM).
# (§2) Cells were washed twice with Ammonium free, Na^+-free HEPES (100 mM choline, 50 mM HEPES, 10 mM glucose, 5 mM KCl, 2 mM CaCl2, 1 mM MgCl2, pH 7.4) and incubated in the same buffer for 10 minutes at room temperature to lower intracellular pH. […] Initial rates were plotted as the average 2 or more replicates, and pIC50 values were estimated using GraphPad Prism.
# (§3) Cell-based activity of NHE3 Activity under ‘Prompt’ Conditions. This assay was performed as described in Example 1 (supra).
# [2] = test system: absorption of sodium from the intestinal lumen; assay: Fecal form score (FFS) 16 h after oral dose in rats; assay type: in vivo, rat; conditions: oral gavage, 16 h post-dose, scale 1-5
# Description: (§4) Inhibition of intestinal sodium and phosphate absorption. Urinary sodium concentration and fecal form were measured to assess the ability of selected example compounds to inhibit the absorption of sodium from the intestinal lumen. Eight-week old Sprague-Dawley rats were purchased from Charles River Laboratories (Hollister, CA), were housed 2 per cage, and acclimated for at least 3 days before study initiation. Animals were fed Harlan Teklad Global 2018 rodent chow (Indianapolis, IN) and water ad libitum throughout the study and maintained in a standard light/dark cycle of 6 AM to 6 PM. On the day of the study, between 4 PM and 5 PM, a group of rats (n=6) were dosed via oral gavage with test compound, or a pharmaceutically acceptable salt thereof, or vehicle (water) at a volume of 10 mL/kg.
# (§5) After dose administration animals were placed in individual metabolic cages where they were also fed the same chow in meal form and watered ad libitum. At 16 h post-dose, the urine samples were collected and fecal form was assessed by two independent observations. Fecal forms were scored according to a common scale associated with increasing fecal water to the wettest observation in the cage's collection funnel (1, normal pellet; 2, pellet adhering to sides of collection funnel due to moisture; 3, loss of normal pellet shape; 4, complete loss of shape with a blotting pattern; 5, liquid fecal streams evident). A rat's fecal form score (FFS) was determined by averaging both observational scores for all rats within a group (n=6). The vehicle group average was 1.
# Human NHE3 = molecular target: T2, Human NHE3 (Homo sapiens, UniProt P48764); assay: Cell-based NHE3 activity under prompt conditions (OK cells, BCECF pH recovery), human NHE3; conditions: prompt conditions
# T2 construct: expressed in transfected cells; host or cells: Opossum kidney (OK) cells (ATCC), electroporation
# T2 sequence (P48764 26-834): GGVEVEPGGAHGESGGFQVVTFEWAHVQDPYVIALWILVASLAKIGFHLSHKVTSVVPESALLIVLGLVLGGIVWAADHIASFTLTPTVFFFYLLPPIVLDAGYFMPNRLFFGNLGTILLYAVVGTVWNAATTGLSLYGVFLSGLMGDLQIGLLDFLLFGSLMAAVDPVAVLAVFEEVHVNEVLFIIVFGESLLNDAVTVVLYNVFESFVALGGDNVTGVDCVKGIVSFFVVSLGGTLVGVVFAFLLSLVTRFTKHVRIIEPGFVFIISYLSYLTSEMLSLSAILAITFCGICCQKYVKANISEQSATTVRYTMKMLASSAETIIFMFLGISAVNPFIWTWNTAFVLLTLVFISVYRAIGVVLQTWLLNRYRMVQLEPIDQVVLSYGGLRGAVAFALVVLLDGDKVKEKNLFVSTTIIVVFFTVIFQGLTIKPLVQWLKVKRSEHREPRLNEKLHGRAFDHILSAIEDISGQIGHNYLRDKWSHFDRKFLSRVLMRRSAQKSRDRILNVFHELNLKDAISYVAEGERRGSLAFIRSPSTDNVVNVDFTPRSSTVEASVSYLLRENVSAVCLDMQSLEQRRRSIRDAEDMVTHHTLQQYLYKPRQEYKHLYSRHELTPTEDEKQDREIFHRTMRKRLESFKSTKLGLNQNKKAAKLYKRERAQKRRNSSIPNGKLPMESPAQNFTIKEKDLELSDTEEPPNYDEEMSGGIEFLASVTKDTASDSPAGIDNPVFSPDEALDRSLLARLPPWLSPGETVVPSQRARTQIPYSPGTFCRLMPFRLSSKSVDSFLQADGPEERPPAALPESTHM
# Description: as §1, §2, §3
# [3] = test system: absorption of sodium from the intestinal lumen; assay: Inhibition of intestinal sodium absorption: urinary sodium (uNa) 16 h after single oral dose in rats; assay type: in vivo, rat; conditions: oral gavage, 16 h post-dose
# Description: as §4, §5
# For urine samples, the volumes were determined gravimetrically and centrifuged at 3,600×g. The supernatants were diluted 100-fold in deionized Milli-Q water then filtered through a 0.2 μm GHP Pall AcroPrep filter plate (Pall Life Sciences, Ann Arbor, MI) prior to analysis by ion chromatography. Ten microliters of each filtered extract was injected onto a Dionex ICS-3000 ion chromatograph system (Dionex, Sunnyvale, CA). Cations were separated by an isocratic method using 25 mM methanesulfonic acid as the eluent on an IonPac CS12A 2 mm i.d.×250 mm, 8 μm particle size cation exchange column (Dionex). Sodium was quantified using standards prepared from a cation standard mix containing Li^+, Na^+, NH4^+, K^+, Mg^2+, and Ca^2+ (Dionex). The mean mass of sodium urinated for every group in the 16 h period was determined with the vehicle group usually urinating approximately 21 mg sodium. The urine Na (uNa) for rats in the test groups were expressed as a percentage of the vehicle mean and the means were compared to that of the vehicle group by utilizing a one-way analysis of variance coupled with a Dunnett's post hoc test.
# Further experiments were performed to test the compounds under the persistent and prompt conditions described above, and to test their effects on urinary excretion of sodium in rats. The latter was performed by orally dosing the compounds in rats (single dose) and measuring urinary Na excretion (as a % of vehicle). The results are indicated as percentage of urinary sodium (UNa %); low values indicate relatively active compounds.
# T1 sequence (P26433 29-831): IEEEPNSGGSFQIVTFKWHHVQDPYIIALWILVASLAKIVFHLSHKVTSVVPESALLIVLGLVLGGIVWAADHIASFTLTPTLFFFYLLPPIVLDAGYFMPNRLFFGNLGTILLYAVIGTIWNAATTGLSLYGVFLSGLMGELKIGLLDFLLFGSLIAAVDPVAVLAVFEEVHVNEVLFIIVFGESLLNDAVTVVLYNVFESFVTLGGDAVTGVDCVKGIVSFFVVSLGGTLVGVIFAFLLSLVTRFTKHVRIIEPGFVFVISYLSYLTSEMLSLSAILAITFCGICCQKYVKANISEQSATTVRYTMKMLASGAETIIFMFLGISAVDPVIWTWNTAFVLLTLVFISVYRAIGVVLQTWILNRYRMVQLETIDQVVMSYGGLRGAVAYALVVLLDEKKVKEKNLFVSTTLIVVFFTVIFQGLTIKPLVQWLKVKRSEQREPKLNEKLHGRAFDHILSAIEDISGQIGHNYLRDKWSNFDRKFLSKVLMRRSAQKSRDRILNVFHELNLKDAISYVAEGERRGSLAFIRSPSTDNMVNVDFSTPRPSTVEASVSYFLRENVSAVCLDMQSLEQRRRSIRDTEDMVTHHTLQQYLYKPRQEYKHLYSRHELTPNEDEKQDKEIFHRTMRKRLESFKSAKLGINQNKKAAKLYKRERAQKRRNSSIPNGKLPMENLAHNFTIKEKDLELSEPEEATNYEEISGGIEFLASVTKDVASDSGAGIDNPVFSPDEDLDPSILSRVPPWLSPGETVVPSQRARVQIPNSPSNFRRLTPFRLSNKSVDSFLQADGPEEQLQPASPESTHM
Prompt Rat NHE3 pIC50 (Rat NHE3),Prompt Human NHE3 pIC50 (Human NHE3),Structure (SMILES),Urine P % of control ([1]; dose 3 mg/kg),Fecal Form Score average ([2]; dose 3 mg/kg),Urine Na % of control ([3]; dose 3 mg/kg),Urine P % of control ([1]; dose 10 mg/kg),Fecal Form Score average ([2]; dose 10 mg/kg),Urine Na % of control ([3]; dose 10 mg/kg),other results
8.10,8.00,CN(C)[C@H]1Cc2c(Cl)cc(Cl)cc2[C@@H]1Oc1ccc(S(=O)(=O)NCCOCCOCCNC(=O)COCC(=O)NCCOCCOCCNS(=O)(=O)c2ccc(O[C@H]3c4cc(Cl)cc(Cl)c4C[C@@H]3N(C)C)cc2)cc1 [compound 149],115%,1,46%,,,,Urine P % of control ([1]; dose 1 mg/kg): 122%; Urine P % of control ([1]; dose 2 mg/kg): 69%; Fecal Form Score average ([2]; dose 1 mg/kg): 1; Fecal Form Score average ([2]; dose 2 mg/kg): 2; Urine Na % of control ([3]; dose 1 mg/kg): 54%; Urine Na % of control ([3]; dose 2 mg/kg): 53%
8.10,8.30,O=C(NCCOCCOCCNS(=O)(=O)c1ccc(O[C@H]2c3ccccc3C[C@@H]2N2CCCCC2)cc1)c1ccc(C(=O)NCCOCCOCCNS(=O)(=O)c2ccc(O[C@H]3c4ccccc4C[C@@H]3N3CCCCC3)cc2)cc1 [compound 100],,,,68%,1,57%,
7.90,7.90,CN1Cc2c(Cl)cc(Cl)cc2[C@H](c2cccc(S(=O)(=O)NCCOCCOCCNC(=O)CN(CCN(CC(=O)O)CC(=O)NCCOCCOCCNS(=O)(=O)c3cccc([C@@H]4CN(C)Cc5c(Cl)cc(Cl)cc54)c3)CC(=O)O)c2)C1 [compound 81],,,,42%,2,11%,
8.00,7.77,CN(C)[C@H]1Cc2c(Cl)cc(Cl)cc2[C@@H]1Oc1ccc(S(=O)(=O)NCCOCCOCCNC(=O)CCC(C)(CCC(=O)NCCOCCOCCNS(=O)(=O)c2ccc(O[C@H]3c4cc(Cl)cc(Cl)c4C[C@@H]3N(C)C)cc2)NC(=O)CCC(=O)O)cc1 [compound 179],66%,1,40%,,,,

# More lines, now with the values behind:
Structure (SMILES),Prompt Rat NHE3 pIC50 (Rat NHE3),Prompt Human NHE3 pIC50 (Human NHE3),Urine P % of control ([1]; dose 3 mg/kg),Fecal Form Score average ([2]; dose 3 mg/kg),Urine Na % of control ([3]; dose 3 mg/kg),Urine P % of control ([1]; dose 10 mg/kg),Fecal Form Score average ([2]; dose 10 mg/kg),Urine Na % of control ([3]; dose 10 mg/kg),other results
NC(N)=Nc1nc(-c2ccc(N3CCN(CCOCCOCCNC(=O)[C@H](O)[C@@H](O)C(=O)NCCOCCOCCN4CCN(c5ccc(-c6nc(N=C(N)N)nc7ccc(Cl)cc67)cc5)CC4)CC3)cc2)c2cc(Cl)ccc2n1 [compound 17],7.10,6.60,,,,,,,Urine P % of control ([1]; dose 30 mg/kg): 120%; Fecal Form Score average ([2]; dose 30 mg/kg): 1; Urine Na % of control ([3]; dose 30 mg/kg): 86%
CN(C)CC(=O)NC(CCC(=O)N(C)CCOCCOCCNS(=O)(=O)c1cccc([C@@H]2CN(C)Cc3c(Cl)cc(Cl)cc32)c1)(CCC(=O)N(C)CCOCCOCCNS(=O)(=O)c1cccc([C@@H]2CN(C)Cc3c(Cl)cc(Cl)cc32)c1)CCC(=O)N(C)CCOCCOCCNS(=O)(=O)c1cccc([C@@H]2CN(C)Cc3c(Cl)cc(Cl)cc32)c1 [compound 176],7.50,7.40,92%,1,73%,,,,
CN1Cc2c(Cl)cc(Cl)cc2[C@H](c2cccc(S(=O)(=O)NCCOCCOCCNC(=O)CCC(CCC(=O)NCCOCCOCCNS(=O)(=O)c3cccc([C@@H]4CN(C)Cc5c(Cl)cc(Cl)cc54)c3)(CCC(=O)NCCOCCOCCNS(=O)(=O)c3cccc([C@@H]4CN(C)Cc5c(Cl)cc(Cl)cc54)c3)NC(=O)NC(CO)(CO)CO)c2)C1 [compound 158],<5.00,6.90,64%,2,32%,,,,
CN1Cc2c(Cl)cc(Cl)cc2[C@H](c2cccc(S(=O)(=O)NCCOCCOCCNC(=O)CCC(CCC(=O)NCCOCCOCCNS(=O)(=O)c3cccc([C@@H]4CN(C)Cc5c(Cl)cc(Cl)cc54)c3)(CCC(=O)NCCOCCOCCNS(=O)(=O)c3cccc([C@@H]4CN(C)Cc5c(Cl)cc(Cl)cc54)c3)NC(=O)Cn3ccnc3)c2)C1 [compound 154],6.80,6.80,65%,1,112%,,,,
CN1Cc2c(Cl)cc(Cl)cc2[C@H](c2cccc(S(=O)(=O)NCCOCCOCCN(C)C(=O)CCC(CCC(=O)N(C)CCOCCOCCNS(=O)(=O)c3cccc([C@@H]4CN(C)Cc5c(Cl)cc(Cl)cc54)c3)(CCC(=O)N(C)CCOCCOCCNS(=O)(=O)c3cccc([C@@H]4CN(C)Cc5c(Cl)cc(Cl)cc54)c3)NC(=O)COCC(=O)O)c2)C1 [compound 177],7.70,7.80,45%,2,52%,,,,
CN(CC(=O)NCCOCCOCCOCCN1CCN(c2ccc(-c3nc(NC(=N)N)nc4ccc(Cl)cc34)cc2)CC1)CC(=O)NCCOCCOCCOCCN1CCN(c2ccc(-c3c(Cl)ccc4nc(NC(=N)N)ncc34)cc2)CC1 [compound 21],,7.00,,,,101%,1,66%,IC50 (Rat NHE3; read-out: Prompt Rat NHE3 pIC50 (converted)): 794 nM
